The values below come from patent publication US10894808B2, “Polypeptide ligands specific for plasma kallikrein” (BicycleRD Limited, priority 2013, dated 2021).

*1 amine or outer side, *2 acyl side, *3 side chain or, on linkers, in order; H or OH if unused. Where a SMILES comes first, the peptide text is derived from it. Bridges are numbered along the chain shown (N, C = ends). [ ]: non-standard residue; d: D form. TBMB = c1c(C[*:1])cc(C[*:3])cc1C[*:2]; hArg = N=C(N)NCCCC[C@H](N)C(=O)O; Aze = O=C(O)[C@@H]1CCN1; Sar = CNCC(=O)O

Data set [1] can be described thus: Intravenous pharmacokinetics in rat. As to conditions: iv 5 mg/kg. It is filed as in vivo. The protocol: Peptides used for the pharmacokinetic studies in Example 4 were lyophilised from 10 mM HCl in water 3 times to afford the hydrochloride salts of the compounds. Solutions were dosed by intravenous bolus at 1 mg/mL in 50 mM Hepes pH 7.0, 5% glycerol, 1.9% DMSO for two compounds (Ac-(06-550) Aze3 HArg5 Sar3-(D-Arg2)) and (06-259-02)-Sar3-(D-Arg2)) at 5 mg/kg in Spraguely Dawely rats. Serial blood samples (˜0.2 mL) were taken into EDTA tubes at the indicated time points, and plasma was separated by centrifugation, and frozen at −20 C for analysis. Employing standard bioanalytical techniques, plasma samples were then analysed and quantified for parent remaining compound using a Waters, Xevo TQS LC-MS. PK parameters were determined using the software package PK Solutions 2.0 from Summit Research Services.
Peptides Ac-(06-550)-Sar3-(D-Arg)2Aze3 HArg5 (which contains the stabilising and affinity enhancing modifications Aze3 and HArg5, and a solubilising C-terminal extension Sar3-(D-Arg)2) (SEQ ID NO: 98) and Ac-(06-259-02)-Sar3-(D-Arg)2 were selected for pharmacokinetic assessment in rat. Peptides were injected intravenously in buffered solution at 1 mg/mL at 5 mg/kg Sprague Dawley rats, and blood was sampled and analysed for peptide concentrations at a number of time points post injection.

The target in another data set is rabbit kallikrein (Oryctolagus cuniculus, UniProt G1T127). Kind of data set: Functional enzyme assay, inhibition of rabbit kallikrein. It is filed as biochemical. Particulars: Table 5; read-out: Rabbit (Ki). Summed up:
(§1)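 Buffer 10 mM Tris HCl, 150 mM NaCl, 10 mM MgCl2, 1 mM CaCl2, 1 mg/mL BSA, pH 7.4, 25° C. AMC release read at ex 360/em 460 nm; linear-phase rate (typically 5–45 min) fitted by four-parameter non-linear regression for IC50, with Ki also derived.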

Data set [2] in a line: Aqueous solubility (qualitative). It is filed as physicochemical. Particulars: in words.
The target in data set [3] is T1, biotinylated human plasma kallikrein (Homo sapiens, UniProt P03952).
T1 construct: The human kallikrein is non-recombinant and therefore the heavy chain is present; purchased Innovative Research, Novi, Mich., USA IHPKA; host or cells: from human plasma
T1 sequence (P03952 391-638 limits assumed): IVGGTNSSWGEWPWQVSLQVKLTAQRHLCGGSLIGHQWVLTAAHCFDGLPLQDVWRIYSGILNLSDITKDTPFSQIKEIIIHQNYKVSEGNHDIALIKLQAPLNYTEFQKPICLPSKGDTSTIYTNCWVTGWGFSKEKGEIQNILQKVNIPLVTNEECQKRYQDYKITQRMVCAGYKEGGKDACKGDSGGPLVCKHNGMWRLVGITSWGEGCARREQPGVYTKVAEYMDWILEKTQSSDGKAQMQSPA
T1 sequence (P03952 20-390 partner limits assumed): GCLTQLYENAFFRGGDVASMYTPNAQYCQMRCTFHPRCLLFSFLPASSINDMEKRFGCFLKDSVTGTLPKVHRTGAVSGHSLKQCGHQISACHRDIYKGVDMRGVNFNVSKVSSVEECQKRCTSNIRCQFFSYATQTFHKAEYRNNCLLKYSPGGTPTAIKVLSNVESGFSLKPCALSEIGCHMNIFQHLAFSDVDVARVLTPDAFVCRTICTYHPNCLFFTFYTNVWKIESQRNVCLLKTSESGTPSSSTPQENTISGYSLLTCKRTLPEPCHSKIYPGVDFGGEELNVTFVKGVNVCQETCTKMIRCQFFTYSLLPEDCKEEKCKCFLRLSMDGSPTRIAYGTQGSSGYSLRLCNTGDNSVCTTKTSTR
Put plainly: Homogeneous plate-based screening assay of TBMB-cyclised phage clones (signal:background). It is filed as binding. Particulars: Table 4, 06-259 affinity-matured library. The protocol:
Assay of binding of individual clones: Library transformant colonies were picked at random and grown as individual cultures in 2TY broth containing selective antibiotic. The picked colonies were DNA-sequenced using a QIAgen PyroMark Q96 DNA sequencer to reveal the amino-acid substitution present in each clone. Where isolated, a clone of each unique substitution was assayed for human plasma kallikrein binding as follows. The phage-containing supernatant was harvested from the culture and phage were cyclised with tris bromomethyl benzene (TBMB) based on the methods of Heinis et al (Nature Chemical Biology vol. 5 pp 502-507 (2009)). The purified phage from this process were assayed for binding to biotinylated human plasma kallikrein using a homogeneous plate-based binding assay; assay read-out measured on a BMG Labtech Pherastar FS plate reader. The quantitative binding data from triplicate assay samples was averaged (mean) and expressed as signal:background (where background was a sample assayed with no target material). The signal:background was expressed as a % of the parallel parent sample. Error bars denote standard deviation of the mean. Assays shown are representative of at least 2 independent experiments. The assay data was correlated with the peptide sequences. Substitutions marked in grey were not tested (a clone was not isolated from the random library sampling). A sample of a non-binding (arbitrary) bicycle was assayed in parallel to illustrate the assay baseline.
Assay of binding of individual clones: Library transformant colonies, or selection output colonies, were picked and grown as individual cultures in 2TY broth containing selective antibiotic. The picked colonies were DNA-sequenced using a QIAgen PyroMark Q96 DNA sequencer to reveal the amino-acid substitution present in each clone, and were assayed for human plasma kallikrein binding as follows. The phage-containing supernatant was harvested from the culture and phage were cyclised with tris-bromomethylbenzene (TBMB) based on the methods of Heinis et al (Nature Chemical Biology vol. 5 pp 502-507 (2009)). The purified phage from this process were assayed for binding to biotinylated human plasma kallikrein using a homogeneous plate-based binding assay; assay read-out measured on a BMG Labtech Pherastar FS plate reader. The quantitative binding data from duplicate assay samples was averaged (mean) and expressed as signal:background. Assay data shown is representative of at least 2 independent experiments. The assay data was correlated with the peptide sequences.

Data set [4] is described as follows: Plasma stability profiling Method #1 (35% plasma, MALDI-TOF window of detection). Type of data set: in vitro ADME. Particulars: Method #1, 35% rat or human plasma, 37° C., qualitative. The protocol: A rapid plasma stability profiling assay was developed that employed mass spectrometric detection (MALDI-TOF, Voyager DE, Applied Biosystems) of the parent mass, until the time when the parent peptide mass was no longer observable. Specifically, 200 μM of peptide was incubated in the presence of 35% rat or human plasma (Sera labs, using citrate as anticoagulant) at 37° C., which was supplemented with 1×PBS (derived from a 10×PBS Stock, Sigma). At various time points (i.e. t=0, 3, 24 hrs, henceafter daily up to 10 days), 2 μL of sample was added to 18 μL of 30 mM ammonium bicarbonate in a 1:1 mixture of acetonitrile:H2O. Samples were frozen at −80° C. until the time of analysis. For mass spectrometric analysis that determines the approximate detection window of the peptide, the acetonitrile:H2O-diluted sample of a given time point was spotted directly (0.7 μL) onto the MALDI plate. Matrix (alpha-cyanocinnamic acid, Sigma, prepared as a saturated solution in 1:1 acetonitrile:water containing 0.1% trifluoroacetic acid) was layered over the sample (1 μL). At a similar laser intensity setting on the MALDI TOF, the time could then be determined until parent peptide was no longer detectable. It should be noted that this is a qualitative assay serves to detect relative changes in plasma stability.

Data set [5] can be described thus: Plasma stability profiling Method #2 (95% plasma, MALDI-TOF), human plasma. It is filed as in vitro ADME. As to conditions: qualitative, sampled up to 46 hrs. The protocol: (§2) To obtain stability data more rapidly, peptides were also assessed in 95% plasma. Here, PBS was omitted, and a 1-5 mM peptide stock (in DMSO) was directly diluted into plasma (i.e. 2.5 μL stock into 47.5 μL plasma), giving a final concentration of 50 μM. 5 μL samples were taken at appropriate time points and frozen at −80° C. For analysis, the samples were defrosted, mixed with 25 μL of 3:3:1 acetonitrile:methanol:water, and centrifuged at 13 k for 5 min. 5 μL of the peptide-containing supernatant was aspirated and mixed with 30 mM ammonium bicarbonate in a 1:1 mixture of acetonitrile:H2O. 1 μL of this was then spotted on the MALDI plate and analysed as described above. As above, it should be noted that this is a qualitative assay serves to detect relative changes in plasma stability.

A short description of data set [6]: Plasma stability profiling Method #2 (95% plasma, MALDI-TOF), rat plasma. Type of data set: in vitro ADME. As to conditions: qualitative, sampled up to 46 hrs. The protocol:
as §2

Data set [7] is described as follows: Pharmacokinetics following intravitreal injection in rabbit. Type of data set: in vivo. Particulars: vitreous humour; New Zealand White rabbit, intravitreal 100 μg/eye; read-out: elimination half-life from the vitreous humour. On the procedure: In this analysis, peptide Ac-(06-550)-Sar3-(D-Arg)2 Aze3 HArg5 (referred to in this study as Bicycle 1 and which contains the stabilising and affinity enhancing modifications Aze3 and HArg5, and a solubilising C-terminal extension Sar3-(D-Arg)2 (SEQ ID NO: 98); see Examples 3 and 4 herein) was assessed comparatively against the peptide Ac-(06-34-18) Phe2 Aze3 Tyr4 HArg5 Ala(ψCH2NH)6 (referred to in this study as Bicycle 2 and which is disclosed in Table 26b and FIG. 22 of PCT/EP2014/057440). New Zealand White rabbits (2-3 kg) were anaesthetized and both peptides were administered by intravitreal injection (100 μg/eye) according to the protocol described in Table 9.
After an appropriate time, rabbits were euthanized and vitreous humour, aqueous humour, retina and plasma samples were taken. Samples were analysed by LC-MS to determine the concentration of the peptide. The results of this study are shown in FIG. 5 where it can be observed that both peptides were slowly cleared from the vitreous humour, with elimination half-lives of 20-30 h.

A further data set deals with T2, human plasma kallikrein (Homo sapiens, UniProt P03952).
T2 construct: purchased Stratech, UK
T2 sequence (P03952 391-638 limits assumed): as the sequence (P03952 391-638 limits assumed) above
T2 sequence (P03952 20-390 partner limits assumed): as the sequence (P03952 20-390 partner limits assumed) above
Put plainly: Functional enzyme assay, inhibition of human plasma kallikrein (Z-PheArg-AMC substrate). It is filed as biochemical. The method, boiled down: as §1

Sequence of rabbit kallikrein (G1T127 20-629): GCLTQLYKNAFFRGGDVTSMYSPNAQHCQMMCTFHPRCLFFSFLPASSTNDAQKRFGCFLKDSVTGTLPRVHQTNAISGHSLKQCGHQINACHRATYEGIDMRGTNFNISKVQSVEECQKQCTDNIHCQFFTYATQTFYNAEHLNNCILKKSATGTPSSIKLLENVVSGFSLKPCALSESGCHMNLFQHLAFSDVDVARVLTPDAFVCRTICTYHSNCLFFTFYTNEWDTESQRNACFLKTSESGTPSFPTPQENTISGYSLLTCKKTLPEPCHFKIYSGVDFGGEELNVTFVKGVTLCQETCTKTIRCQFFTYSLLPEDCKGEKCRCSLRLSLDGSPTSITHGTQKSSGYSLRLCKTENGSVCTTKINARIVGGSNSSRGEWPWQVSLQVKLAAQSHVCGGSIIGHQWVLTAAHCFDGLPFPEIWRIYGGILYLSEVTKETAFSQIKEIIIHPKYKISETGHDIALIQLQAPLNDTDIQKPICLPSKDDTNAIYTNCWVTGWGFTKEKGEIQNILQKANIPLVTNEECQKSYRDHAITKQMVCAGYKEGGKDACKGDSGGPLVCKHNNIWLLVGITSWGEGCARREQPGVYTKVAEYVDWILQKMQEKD

As a reminder, the clearance is the rate of elimination divided by the concentration. A higher clearance goes with a high capacity for elimination. What is called Ki is a measure of affinity in units of concentration, obtained from inhibition or displacement. With `CC(C)C[C@@H]1NC(=O)[C@@H]2CCCN2C(=O)[C@H](C)NC(=O)[C@H](CC(=O)O)NC(=O)[C@H](Cc2c[nH]c3ccccc23)NC(=O)[C@@H]2CCCN2C(=O)[C@@H]2CSCc3cc(cc(c3)CSC[C@@H](C(=O)N[C@@H](C)C(N)=O)NC1=O)CSC[C@H](NC(=O)[C@H](C)N)C(=O)N[C@@H](CC(N)=O)C(=O)N[C@@H]([C@@H](C)O)C(=O)N[C@@H](Cc1c[nH]c3ccccc13)C(=O)N[C@@H](CC(N)=O)C(=O)N1CCC[C@H]1C(=O)N[C@@H](Cc1c[nH]c3ccccc13)C(=O)N2` [06-259-02] (H-ACNTWNPWCPWDAPLCA-NH2; linker 2-9-16 via TBMB; N-terminus and C-terminus assumed), the clearance in [1] (Sprague-Dawley, plasma, text b258, rat) worked out at 7 mL/min/kg. Further, the inhibition constant (Ki) on rabbit kallikrein turned out to be 1.45 µM. Further, the aqueous solubility entry in data set [2] is listed as “poor solubility profile”. Moreover, the “S:B (Signal:Background)” value in [3] came to 43.49. The “window of detection of parent peptide” value in [4] is recorded as “up to 10 days”. In addition, the “comparative stability in human plasma” value in [5] is “significantly more stable”. Further, the “comparative stability in rat plasma” value in data set [6] is on record as “significantly more stable”.

`CC[C@H](C)[C@@H]1NC(=O)[C@H](CC(=O)O)NC(=O)[C@@H]2CCCN2C(=O)[C@H](Cc2ccc(O)cc2)NC(=O)[C@H](Cc2ccc(O)cc2)NC(=O)[C@H](C(C)C)NC(=O)[C@@H]2CSCc3cc(cc(c3)CSC[C@@H](C(=O)N[C@@H](C)C(=O)N(C)CC(=O)N(C)CC(=O)N(C)CC(=O)N[C@H](CCCNC(=N)N)C(=O)N[C@H](CCCNC(=N)N)C(N)=O)NC1=O)CSC[C@H](NC(C)=O)C(=O)N[C@@H](CO)C(=O)N[C@@H](Cc1ccccc1)C(=O)N1CC[C@H]1C(=O)N[C@@H](Cc1ccc(O)cc1)C(=O)N[C@@H](CCCCNC(=N)N)C(=O)N2` [Ac-(06-550)-Sar3-(DArg2) Aze3HArg5] (Ac-CSF[Aze]Y[hArg]CVYYPDICA[Sar][Sar][Sar][dR][dR]-NH2; linker 1-7-14 via TBMB; C-terminus assumed) gave a clearance in data set [1] (in vivo, Table 8, Sprague Dawley rat) of 17 mL/min/kg. For the same compound, the Vd in [1] (in vivo, Table 8, Sprague Dawley rat, read-out: Vss) is 0.4 L/kg. Moreover, the half-life in data set [1] (in vivo, Table 8, Sprague Dawley rat, read-out: t1/2 elimination) is 2.27 h; in data set [7], 20 to 30 h. The same compound yielded a Ki on human plasma kallikrein of 0.0004 µM. In addition, the “comparative stability in human plasma” value in data set [5] is on record as “high stability”; in data set [5] (listed as 06-550 derivative) it was “Little degradation is observed”. Also, the results for the “comparative stability in rat plasma” value in data set [6] and in data set [6] (listed as 06-550 derivative) were “high stability” and “Little degradation is observed”, respectively.
